The values below come from patent US8268848B2, “Cyclopropane compound” (Eisai R&D Management Co., Ltd., priority 2010, dated 2012).

For assay [1], the system named is rats. The following applies: cited from earlier work.
The test system of assay [2] is patients with insomnia. The following applies: cited from earlier work.
Assay [3] relates to normal humans. The following applies: cited from earlier work.
The target in assay [4] is T1, OX2 (Homo sapiens, UniProt O43614).
T1 sequence (O43614 1-444): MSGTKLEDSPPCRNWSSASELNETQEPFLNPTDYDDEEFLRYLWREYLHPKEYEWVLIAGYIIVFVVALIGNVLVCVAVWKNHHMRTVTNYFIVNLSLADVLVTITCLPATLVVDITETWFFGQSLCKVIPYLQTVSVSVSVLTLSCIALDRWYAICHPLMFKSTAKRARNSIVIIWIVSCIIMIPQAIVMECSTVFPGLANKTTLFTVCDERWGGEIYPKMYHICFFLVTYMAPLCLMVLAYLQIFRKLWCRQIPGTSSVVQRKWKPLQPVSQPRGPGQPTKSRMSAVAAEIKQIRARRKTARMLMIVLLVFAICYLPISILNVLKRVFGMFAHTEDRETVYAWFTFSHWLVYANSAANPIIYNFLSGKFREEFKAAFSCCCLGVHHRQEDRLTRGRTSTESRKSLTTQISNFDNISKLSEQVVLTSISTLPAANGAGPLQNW
Kind of assay: Measurement of orexin receptor-binding ability ([125I]-OX-A, cell membranes, OX2). Further details: expressed in transfected cells; host or cells: CHO cells (membrane preparation). The note with it: membranes of recombinant CHO cells expressing OX2, 0.2 nM [125I]-OX-A.

Assay [5] has as its target T2, OX1 (Homo sapiens, UniProt O43613).
T2 sequence (O43613 1-425): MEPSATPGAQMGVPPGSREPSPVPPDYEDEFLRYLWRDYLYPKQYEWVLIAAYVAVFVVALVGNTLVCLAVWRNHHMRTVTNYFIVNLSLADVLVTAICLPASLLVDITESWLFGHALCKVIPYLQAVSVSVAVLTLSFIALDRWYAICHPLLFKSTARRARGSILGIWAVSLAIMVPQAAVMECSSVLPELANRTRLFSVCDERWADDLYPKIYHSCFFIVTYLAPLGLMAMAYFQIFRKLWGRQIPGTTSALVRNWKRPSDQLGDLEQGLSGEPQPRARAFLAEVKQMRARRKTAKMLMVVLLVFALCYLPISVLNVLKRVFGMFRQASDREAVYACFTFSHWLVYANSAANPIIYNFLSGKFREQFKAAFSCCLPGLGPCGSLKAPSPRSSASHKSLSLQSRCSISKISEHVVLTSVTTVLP
Nature of the assay: Measurement of orexin receptor-binding ability ([125I]-OX-A, cell membranes, OX1). Further details: expressed in transfected cells; host or cells: CHO cells (membrane preparation).

Assay [6] deals with T2, OX1. Kind of assay: Measurement of antagonism (PLAP assay), OX1. Format: cell-based. On the set-up: expressed in transfected cells; host or cells: HEK-293 cells, expression vector pBabeCLIH. As for the experimental part: (§1) 2. Measurement of Antagonism (PLAP Assay)
(§2) The antagonistic function of the compound of the present invention to prevent the activation of OX2 and OX1 by orexin-A (OX-A), which is a natural peptide agonist, was measured using a cell-based reporter assay. […] The cells were plated at a density of 10,000 cells/well onto a non-coated 96-well plate in Dulbecco's modified Eagle medium (Sigma Cat No. D6046:10% v/v heat-inactivated fetal bovine serum was contained). The cells were cultured at 37° C. overnight, so that they could adhere to the plate. On the following day, cells were incubated with a compound of the present invention dissolved in Dulbecco's modified Eagle medium (Sigma Cat No. A8806:0.1% w/v bovine serum albumin was contained), and added to the cell plate to reach a final concentration of 0.1% dimethyl sulfoxide.
(§3) The thus obtained mixture was incubated at room temperature for 1 hour. Thereafter, human OX-A and forskolin were dissolved in the same medium as described above, which contained fetal bovine serum albumin, and the medium was then added to the cells, resulting in a final concentration of 300 nM forskolin. Subsequently, the cells were cultured at 37° C. for approximately 18 to 24 hours.

In assay [7] the target is T1, OX2. Kind of assay: Measurement of antagonism (PLAP assay), OX2. Further details: expressed in transfected cells; host or cells: HEK-293 cells, expression vector pBabeCLIH. Format: cell-based. As for the experimental part: as §1, §2, §3
Assay [8] has as its system mice (C57BL/6NCrlCrLj). Kind of assay: Sleep experiment (EEG/EMG) in mice. It is filed as in vivo. As for the experimental part:
As a method for measuring the influence of the present compound on sleep time, electroencephalogram (EEG) and electromyogram (EMG) measurements were carried out in mice (C57BL/6NCrlCrLj).
In order to measure brain waves and muscle signals, EEG and EMG electrode implantation was performed on individual mice, and the mice were then housed in a state in which they could freely move and habituate in individual recording cages for 1 week or longer. Thereafter, amplified EEG and EMG signals were digitally recorded.
Mice received either oral administration of vehicle or test compound in vehicle, after which sleep/wake behavior of mice was recorded for 3 hours.
For sleep analysis, automatic analysis software from Kissei Comtec Co., Ltd. was used to analyze EEG frequency and EMG activity signals in detail and to determine sleep and wake states. Thereafter, accumulated sleeping time over 3 hours was calculated.
The effect of the compound to increase sleep time was evaluated as the difference between sleeping time on the vehicle-administration day and the sleep time on the subsequent drug-administration day.
The minimum effective dose (MED; mg/kg) was obtained from accumulated sleep time of mice with three hours after the administration.

Setting [9] is: mice, oral administration, difference to vehicle day, 3 hours.
[10] abbreviates: HEK-293 cells expressing human OX1, 1 nM human OX-A, IC50 converted by Cheng-Prusoff equation, read-out: OX1 (Ki).
[11] abbreviates: HEK-293 cells expressing human OX2, 1 nM human OX-A, IC50 converted by Cheng-Prusoff equation, read-out: OX2 (Ki).

Where two headings read alike, the source gives them in different places.

As for `CNC(=O)[C@@H](c1ccccc1)N1CCc2cc(OC)c(OC)cc2[C@@H]1CCc1ccc(C(F)(F)F)cc1` [almorexant, (2R)-2-{(1S)-6,7-dimethoxy-1-[2-(4-trifluoromethyl-phenyl)ethyl]-3,4-dihydro-1H-isoquinolin-2-yl}-N-methyl-2-phenylacetamide], in assay [1], the “REM sleep time and non-REM sleep time” value was “dose-dependently increases both rapid eye movement (REM) sleep time and non-REM sleep time”; the wakefulness result is given as “causes a decrease in wakefulness in rats”. Also, the “sleep efficacy, sleep latency, REM sleep” value in assay [2] is “exhibits improvement of sleep efficacy, shortness of sleep latency, increase of REM sleep and improvement of REM sleep ratio”. The “sleep latency, sleep efficacy, total sleep time” value in assay [3] is “exhibits dose-dependently a reduction of sleep latency, sleep efficacy and extension of total sleep time”.
In general, IC50 refers to the concentration that inhibits the measured activity by half. A word on the Ki: it is the equilibrium dissociation constant of an inhibitor or competing ligand from its target. In the case of `Cc1ncc(OC[C@@]2(c3ccccc3F)C[C@H]2C(=O)Nc2ccc(F)cn2)c(C)n1` [Example 263], the results for the IC50 in assay [4] (OX2 (IC50) nM) and in assay [5] were 17 nM and 82 nM, respectively. In addition, the Ki in assay [6] was 193 nM; in assay [7], 8.6 nM. In assay [8] (setting [9]), the “Sleep extended time 10 mg/kg (min/3 hrs)” value was determined as 27.3 min/3 hrs.
In the case of `Cc1ncc(OC[C@@]2(c3cccc(F)c3)C[C@H]2C(=O)Nc2cc(C)c(F)cn2)c(C)n1` [Example 82, (1R,2S)-2-{[(2,4-dimethylpyrimidin-5-yl)oxy]methyl}-N-(5-fluoro-4-methylpyridin-2-yl)-2-(3-fluorophenyl)cyclopropanecarboxamide], the results for the IC50 in assay [4] (OX2 (IC50) nM) and in assay [5] were 3.7 nM and 2.4 nM, respectively. For the same molecule, the Ki in assay [6] (setting [10]) is 0.96 nM; in assay [7] it was 0.085 nM. The “Sleep extended time 10 mg/kg (min/3 hrs)” value in assay [8] (setting [9]) came out at 33.5 min/3 hrs.
For `CCc1nc(C)ncc1OC[C@@]1(c2cccc(F)c2)C[C@H]1C(=O)Nc1ccccn1` [Example 240, (1R,2S)-2-{[(4-ethyl-2-methylpyrimidin-5-yl)oxy]methyl}-2-(3-fluorophenyl)-N-(pyridin-2-yl)cyclopropanecarboxamide], the IC50 in assay [4] (OX2 (IC50) nM) stood at 2.9 nM; in assay [5], 8.7 nM. Moreover, the Ki stood at 18 nM in assay [6] and 0.91 nM in assay [7]. The “Sleep extended time 10 mg/kg (min/3 hrs)” value in assay [8] (setting [9]) worked out at 7.7 min/3 hrs. In assay [8] (mice, oral, doses 0.3 to 100 mg/kg, accumulated sleep time within three hours after administration), the “minimum effective dose (MED)” value was found to be 10 mg/kg.
Turning to `Cc1ncc(OC[C@@]2(c3ccc(Cl)cc3)C[C@H]2C(=O)Nc2ccc(F)cn2)c(C)n1` [Example 161], the IC50 was 12 nM in assay [4] (OX2 (IC50) nM) and 50 nM in assay [5]. Also, the Ki in assay [6] (setting [10]) came to 32 nM; in assay [7] (setting [11]), 2.9 nM. Moreover, the “Sleep extended time 10 mg/kg (min/3 hrs)” value in assay [8] (setting [9]) is 10.0 min/3 hrs.
With `CCc1nc(C)ncc1OC[C@@]1(c2ccccc2)C[C@H]1C(=O)Nc1ccc(F)cn1` [Example 119, (1R,2S)-2-{[(4-ethyl-2-methylpyrimidin-5-yl)oxy]methyl}-N-(5-fluoropyridin-2-yl)-2-phenylcyclopropanecarboxamide], the IC50 in assay [4] (OX2 (IC50) nM) was found to be 5.2 nM; in assay [5], 21 nM. Besides, the Ki was found to be 21 nM in assay [6] (setting [10]) and 0.6 nM in assay [7] (setting [11]). Also, in assay [8] (setting [9]), the “Sleep extended time 10 mg/kg (min/3 hrs)” value is 16.0 min/3 hrs.
For `Cc1ncc(OC[C@@]2(c3ccc(F)cc3)C[C@H]2C(=O)Nc2ccc(F)cn2)c(C)n1` [Example 100, (1R,2S)-2-{[(2,4-dimethylpyrimidin-5-yl)oxy]methyl}-2-(4-fluorophenyl)-N-(5-fluoropyridin-2-yl)cyclopropanecarboxamide], the values for the IC50 in assay [4] (OX2 (IC50) nM) and in assay [5] were 7.6 nM and 40 nM, respectively. For the same molecule, the Ki is 147 nM in assay [6] (setting [10]) and 9.4 nM in assay [7] (setting [11]). Also, in assay [8] (setting [9]), the “Sleep extended time 10 mg/kg (min/3 hrs)” value is on record as 23.8 min/3 hrs.
For `Cc1ncc(OC[C@@]2(c3ccccc3)C[C@H]2C(=O)Nc2ccc(Cl)cn2)c(C)n1` [Example 16, (1R,2S)-N-(5-chloropyridin-2-yl)-2-{[(2,4-dimethylpyrimidin-5-yl)oxy]methyl}-2-phenylcyclopropanecarboxamide], the IC50 in assay [4] (read-out: OX2 (IC50)) came to 1.9 nM; in assay [5] (membranes of recombinant CHO cells expressing OX1, 0.2 nM [125I]-OX-A, read-out: OX1 (IC50)), 40 nM. In addition, the figures for the Ki in assay [6] (setting [10]) and in assay [7] (setting [11]) were 80 nM and 5.4 nM, respectively. Also, in assay [8] (po, 3 h), the “Sleep extended time 10 mg/kg (min/3 hrs)” value worked out at 19.0 min/3 hrs.
